pIC50: −log10 of the molar value.
Assays:
DRB1*0301 (DR3) = DRB1*0301 (DR3) (Homo sapiens, UniProt P01903+P01911, A100K/A102G/A103R/A169T/F55Y/I96L/K41T/L162R/M171V/P40S/Q125H/Q178H/Q39Y/R42S/S66N/T106N/T262R/W38E/Y61H); test: HLA class II peptide binding assay, purified HLA; conditions: unit not given
DRB5*0101 (DR2w2β2) = DRB5*0101 (DR2w2β2) (Homo sapiens, UniProt P01903+Q30154); test: HLA class II peptide binding assay, purified HLA; conditions: unit not given
DRB1*1302 (DR6w19) = DRB1*1302 (DR6w19) (Homo sapiens, UniProt P01903+P01911, A100E/A169T/K41T/L162R/M171V/P40S/Q125H/Q178H/Q39Y/Q99D/R42S/S66N/T262R/V115G/W38E/Y61H); test: HLA class II peptide binding assay, purified HLA; conditions: unit not given
[1] = system: HLA-DR molecules (DR1, DR4w4, DR7, DRB5*0101, DRB1*1501, DRB1*1101, DRB1*0802, DRB1*1302); test: DR supertype cross-reactive binding; set-up: species or system human
DRB1*0802 (DR8w2) = DRB1*0802 (DR8w2) (Homo sapiens, UniProt P01903+P01911, A100R/A103L/A169T/F76Y/H45Y/I96F/K41T/L162R/M171V/P40S/Q125H/Q178H/Q39Y/Q99D/R218S/R42G/S66Y/V115G/W38E); test: HLA class II peptide binding assay, purified HLA; conditions: unit not given
DRB1*1101 (DR5w11) = DRB1*1101 (DR5w11) (Homo sapiens, UniProt P01903+P01911, A100R/A169T/A87E/I96F/K41T/L162R/M171V/P40S/Q125H/Q178H/Q39Y/Q99D/R42S/S66Y/T262R/V115G/W38E); test: HLA class II peptide binding assay, purified HLA; conditions: unit not given
DRB1*0101 (DR1) = DRB1*0101 (DR1) (Homo sapiens, UniProt P01903+P01911, A100R/D57E/F55L/F60I/F76Y/I96L/L162R/M171V/P40L/Q125E/R42F/V115G/Y59C); test: HLA class II peptide binding assay, purified HLA; conditions: unit not given
DRB1*0401 (DR4w4) = DRB1*0401 (DR4w4) (Homo sapiens, UniProt P01903+P01911, A100K/A169T/F76Y/I96L/K127E/L162R/M171V/N62H/P40V/Q125Y/R42H/S133A/S149N/S66Y/V115G/V209L/W38E); test: HLA class II peptide binding assay, purified HLA; conditions: unit not given
DRB1*0701 (DR7) = DRB1*0701 (DR7) (Homo sapiens, UniProt P01903+P01911, A100R/A102G/A103Q/D57E/D86V/E43K/F76Y/K127E/L162R/M171V/P40G/Q125H/Q99D/R33Q/R42Y/R54Q/S133A/S66F/T210M/V115G/Y107V/Y59L/Y89S); test: HLA class II peptide binding assay, purified HLA; conditions: unit not given
DRB1*1501 (DR2w2β1) = DRB1*1501 (DR2w2β1) (Homo sapiens, UniProt P01903+P01911); test: HLA class II peptide binding assay, purified HLA; conditions: unit not given
HLA-A*6801 = HLA-A*6801 (Homo sapiens, UniProt P04439, A269V/D185E/E176V/E277Q/E87N/F33Y/G231S/I121M/I166T/I218V/L180W/L300P/L318F/N151K/P208A/P217A/Q86R/R169H/T345S); assay type: binding; conditions: Table XXIII, HLA-A3 supermotif-bearing peptides
HLA-A*3101 = HLA-A*3101 (Homo sapiens, UniProt P04439, A270S/D185E/E176V/E277Q/F33T/G231S/G80R/H175R/I121M/I218V/I322F/K168Q/L300P/L318F/M331R/P217A/Q94H/R138Q/T323A/T345S/T97I/V358M); assay type: binding; conditions: Table XXIII, HLA-A3 supermotif-bearing peptides
HLA-A*1101 = HLA-A*1101 (Homo sapiens, UniProt P04439, A114D/D185E/E176A/F33Y/L180Q/S129P/T187R); assay type: binding; conditions: Table XXIII, HLA-A3 supermotif-bearing peptides
HLA-A*3301 = HLA-A*3301 (Homo sapiens, UniProt P04439, A270S/D185E/E176V/E277Q/E87N/F33T/G231S/H175R/I121M/I218V/I322F/K168Q/K210R/L300P/L318F/M331R/P217A/Q86R/Q94H/R138Q/T323A/T345S/T97I/V358M/Y195H); assay type: binding; conditions: Table XXIII, HLA-A3 supermotif-bearing peptides
HLA-A*0301 = HLA-A*0301 (Homo sapiens, UniProt P04439); assay type: binding; conditions: Table XXIII, HLA-A3 supermotif-bearing peptides
[2] = Table XIX, DR supermotif peptides
[3] = Table XXa, DR 3a motif peptides

Row | pIC50 (HLA-A*6801) | pIC50 (HLA-A*3101) | pIC50 (HLA-A*1101) | pIC50 (HLA-A*3301) | pIC50 (HLA-A*0301) | Structure (SMILES) | also measured
1 | – | – | – | – | – | CC[C@H](C)[C@H](NC(=O)[C@H](C)NC(=O)[C@@H](NC(=O)[C@@H]1CCCN1C(=O)[C@@H](NC(=O)[C@H](CCCCN)NC(=O)[C@@H](NC(=O)[C@H](CC(N)=O)NC(=O)[C@H](CCC(=O)O)NC(=O)CN)C(C)C)[C@@H](C)CC)C(C)C)C(=O)N[C@@H](CCCCN)C(=O)N[C@H](C(=O)N[C@@H](CC(C)C)C(=O)N[C@@H](CCCNC(=N)N)C(=O)N[C@@H](CCC(=O)O)C(=O)O)C(C)C | DR3 binding data (DRB1*0301 (DR3); [2]): 0.0098; DR2w2B2 binding data (DRB5*0101 (DR2w2β2); [2]): 0.0034; DR6w19 binding data (DRB1*1302 (DR6w19); [2]): 0.0004; DR147 Binding ([1]; number of DR1, DR4w4, DR7 bound, Table XXIX): 2; DR147 Cross-binding ([1]; number of DR1, DR4w4, DR7 bound, Table XXVIII): 2; Broad Binding (5/8) ([1]; number of the 8 DR alleles bound): 2; DR8w2 binding data (DRB1*0802 (DR8w2); [2]): 0.0010; DR5w11 binding data (DRB1*1101 (DR5w11); [2]): −0.0005; DR1 binding data (DRB1*0101 (DR1); [2]): 0.0630; DR4w4 binding data (DRB1*0401 (DR4w4); [2]): −0.0032; DR7 binding data (DRB1*0701 (DR7); [2]): 0.0310; DR2wB1 binding data (DRB1*1501 (DR2w2β1); [2]): 0.0047
2 | – | – | – | – | – | CC[C@H](C)[C@H](NC(=O)[C@H](CCCNC(=N)N)NC(=O)[C@H](CCSC)NC(=O)[C@@H](N)CCC(N)=O)C(=O)N[C@@H](CC(C)C)C(=O)N[C@@H](CCCCN)C(=O)N[C@@H](CCC(=O)O)C(=O)N[C@H](C(=O)N[C@@H](CCC(=O)O)C(=O)N[C@@H](CC(C)C)C(=O)N[C@@H](CCCNC(=N)N)C(=O)N[C@@H](CCCCN)C(=O)N[C@H](C(=O)N[C@@H](CCCCN)C(=O)N[C@H](C(=O)O)C(C)C)C(C)C)[C@@H](C)O | DR3 binding data (DRB1*0301 (DR3); [3]): 0.3200; DR2w2B2 binding data (DRB5*0101 (DR2w2β2); [3]): 0.5900; DR6w19 binding data (DRB1*1302 (DR6w19); [3]): 0.0008; No. of DR Alleles Crossbound ([1]; Table XXXI): 3; DR8w2 binding data (DRB1*0802 (DR8w2); [3]): 0.0064; DR5w11 binding data (DRB1*1101 (DR5w11); [3]): 0.0041; DR1 binding data (DRB1*0101 (DR1); [3]): 0.0419; DR4w4 binding data (DRB1*0401 (DR4w4); [3]): −0.0055; DR7 binding data (DRB1*0701 (DR7); [3]): 0.0130; DR2w2B1 binding data (DRB1*1501 (DR2w2β1); [3]): 0.0150
3 | < 5.00 | 6.18 | 6.34 | 5.21 | 7.26 | CC[C@H](C)[C@H](NC(=O)[C@H](CCC(=O)O)NC(=O)[C@@H](NC(=O)[C@H](CC(C)C)NC(=O)[C@H](CO)NC(=O)[C@H](CCCNC(=N)N)NC(=O)[C@H](CC(C)C)NC(=O)[C@@H](N)CCC(N)=O)[C@@H](C)O)C(=O)N[C@@H](CC(C)C)C(=O)N[C@@H](CCCCN)C(=O)O [Her2/neu.141] | –
4 | 7.57 | 6.35 | 6.99 | 5.18 | 7.59 | CC[C@H](C)[C@H](N)C(=O)N[C@H](C(=O)N[C@@H](CCCCN)C(=O)NCC(=O)NCC(=O)N[C@H](C(=O)N[C@@H](CC(C)C)C(=O)N[C@H](C(=O)N[C@@H](CCC(N)=O)C(=O)N[C@@H](CCCCN)C(=O)O)[C@@H](C)CC)C(C)C)C(C)C [Her2/neu.148.V2K10] | –
5 | 7.54 | 7.14 | 5.12 | – | 6.56 | CC[C@H](C)[C@H](N)C(=O)N[C@H](C(=O)N[C@@H](CCCCN)C(=O)NCC(=O)NCC(=O)N[C@H](C(=O)N[C@@H](CC(C)C)C(=O)N[C@H](C(=O)N[C@@H](CCC(N)=O)C(=O)N[C@@H](CCCNC(=N)N)C(=O)O)[C@@H](C)CC)C(C)C)C(C)C [Her2/neu.148.V2] | –
6 | 6.69 | 7.60 | < 5.00 | 6.92 | 6.56 | CC[C@H](C)[C@H](N)C(=O)N[C@@H](CC(C)C)C(=O)N[C@@H](CCCCN)C(=O)NCC(=O)NCC(=O)N[C@H](C(=O)N[C@@H](CC(C)C)C(=O)N[C@H](C(=O)N[C@@H](CCC(N)=O)C(=O)N[C@@H](CCCNC(=N)N)C(=O)O)[C@@H](C)CC)C(C)C [Her2/neu.148] | –
7 | 6.49 | 7.40 | 6.34 | – | 5.79 | CC(C)[C@H](NC(=O)[C@@H](NC(=O)[C@@H](N)CCCNC(=N)N)[C@@H](C)O)C(=O)N[C@@H](CS)C(=O)N[C@@H](C)C(=O)NCC(=O)NCC(=O)N[C@@H](CS)C(=O)N[C@@H](C)C(=O)N[C@@H](CCCNC(=N)N)C(=O)O [Her2/neu.217] | –
